Results published in patent US10870627B2, “Salt of quinazoline derivative, preparation method therefor and application thereof” (SHANGHAI PHARMACEUTICALS HOLDING CO., LTD., priority 2016, dated 2020).

Tests used:
[1] = Solubility determined by visual inspection; assay type: physicochemical; settings: 20° C.
Method: The solubility was determined as follows: a certain amount of the sample was weighed and the solvent was added thereto in portions with stirring or ultrasonication to accelerate dissolution; the amount of the consumed solvent was recorded once the sample was dissolved. […] A certain volume of the solution was taken, followed by filtration, concentration, dissolved with a certain volume of other suitable solvents and subjected to HPLC measurement to obtain accurate data of the solubility.

[2] = Comparison of absorption in rats after intragastric administration of free base and salt (plasma pharmacokinetics); assay type: in vivo, SD rats; settings: for AUC (0-t) / MRT (0-T) / Tmax / t1/2 / Cmax: SD rats, 20 μmol/kg, intragastric administration, plasma
Method: The blood sample was centrifuged at 8000 RPM for 5 minutes, followed by the isolation of the upper plasma. […] 200 μL of the supernatant was taken and centrifuged again for 10 minutes. 50 μL of the supernatant was injected in a 96-well plate. The plasma drug concentration was determined by LC/MS/MS, and the corresponding pharmacokinetic parameters were calculated.

[3] = Dynamic vapor sorption (DVS), isothermal absorption analysis; assay type: physicochemical
Method: In the present invention, according to the common knowledge in the art, the amount of water absorption obtained from the dynamic vapor sorption (DVS) pattern is expressed in percentage by weight.
The isothermal absorption analysis (DVS) data was collected from TA Instruments Q5000 TGA. The software for instrument control was Thermal Advantage and software for analysis was Universal Analysis. 1-10 mg of the sample was generally placed in a platinum crucible, and the weight change of the sample during the relative humidity changing from 20% to 80% was recorded by the TA software. Depending on the specifics of the sample, different steps of sample adsorption and desorption were also involved.

[4] = Water solubility at 20° C. determined by HPLC; assay type: physicochemical
[5] = Solid-state stability test; assay type: physicochemical
Method: An appropriate amount of the drugs were placed in the surface dish, spread to a thickness of 3-5 mm, and exposed in high temperature, high temperature and high humidity, illumination and oxidation conditions for 10 days respectively, and the solid-state characterization was performed. The purity and the number of impurities 0.05%) of the samples for testing were determined by HPLC, and compared with the samples on day 0. The exposure conditions are:
High temperature (an oven with T=60° C.);
Illumination (25° C., a 4500±500 lx light incubator);
Oxidation (25° C., a closed container containing urea hydrogen peroxide).

[6] = Solution stability test; assay type: physicochemical
Method: About 15 mg of the sample was weighed accurately, dissolved with 25 mL of the test solvent (10% aqueous acetone solution, pH=4.0 B-R buffer solution, SGF, SIF) via ultrasound for 20 minutes. The solution was divided into four portions and placed in the clear glass vials, followed by sealing. The samples were exposed in different environments and sampled on day 0 and day 5. The purity of each sample was determined by HPLC, and the number of impurities greater than 0.05% was calculated and compared with the samples on day 0. The exposure environments are:
Room temperature and light-proof test, 25° C.; […]
Illumination experiment (4500±500 lx), 25° C.;
Oxidation experiment (3% v/v hydrogen peroxide), 25° C.

[7] = 10% aqueous acetone solution, 5 d, High temperature
[8] = 10% aqueous acetone solution, 5 d, Illumination (4500±500 lx, 25° C.)
[9] = 10% aqueous acetone solution, 5 d, Oxidation (3% v/v hydrogen peroxide, 25° C.)
[10] = B-R Buffer solution (pH=4.0), 5 d, High temperature
[11] = B-R Buffer solution (pH=4.0), 5 d, High temperature and high humidity
[12] = B-R Buffer solution (pH=4.0), 5 d, Oxidation (3% v/v hydrogen peroxide, 25° C.)
[13] = SGF, 5 d, High temperature and high humidity
[14] = SGF, 5 d, Oxidation (3% v/v hydrogen peroxide, 25° C.)
[15] = SIF, 5 d, High temperature and high humidity
[16] = SIF, 5 d, Illumination (4500±500 lx, 25° C.)

For `C=C(F)C(=O)Nc1cc2c(Nc3ccc(F)c(Cl)c3)ncnc2cc1OCCCN1CCOCC1.O=S(=O)(O)O`, which “visual solubility in water” value [1] is on record?
The value was 1 to 2 mg/mL.

And the “AUC (0-t)” value [2]?
The value was 591.00 ± 29.76 µM·min.

What about the “MRT (0-T)” value [2] of the same compound?
The value was 343.51 ± 42.43 min.

What about the Tmax [2] of the same compound?
Its Tmax is 70.00 ± 17.32 min.

What about the t1/2 [2] of the same compound?
The t1/2 was 230.81 ± 162.24 min.

And the Cmax ([2]; listed as monosulfate)?
The Cmax was 1660 ± 270 nM.

And the “hygroscopicity, in words” value [3]?
Its value is “fairly hygroscopic”.

What does the source list for `C=C(F)C(=O)Nc1cc2c(Nc3ccc(F)c(Cl)c3)ncnc2cc1OCCCN1CCOCC1.Cl.O`?
AUC (0-t) [2]: 507.89 ± 66.81 µM·min; MRT (0-T) [2]: 408.76 ± 81.85 min; Tmax [2]: 70.00 ± 17.32 min; t1/2 [2]: 270.47 ± 93.62 min; Cmax ([2]; listed as monohydrochloride monohydrate): 980 ± 60 nM; AUC (0-t) and Cmax, comparison in words ([2]; rats, oral, same dose, free base and 6 salts): relatively low; water solubility at 20° C. determined by HPLC [4]: 51.5 µg/mL

With `C=C(F)C(=O)Nc1cc2c(Nc3ccc(F)c(Cl)c3)ncnc2cc1OCCCN1CCOCC1.O.O.O=C(O)CC(O)(CC(=O)O)C(=O)O` [crystal form 5 of the dihydrate] as the compound, how does the “weight change (water absorbed) by DVS” value ([3]; relative humidity range of 0-80%) read?
The value was 0.4%.

For `C=C(F)C(=O)Nc1cc2c(Nc3ccc(F)c(Cl)c3)ncnc2cc1OCCCN1CCOCC1.O=S(=O)(O)O.O=S(=O)(O)O` [disulfate of the quinazoline derivative], which “visual solubility in water” value [1] is on record?
Its value is 0.91 to 1 mg/mL.

With `C=C(F)C(=O)Nc1cc2c(Nc3ccc(F)c(Cl)c3)ncnc2cc1OCCCN1CCOCC1.O=S(=O)(O)c1ccccc1` as the compound, how does the Number of impurities ([5]; 0 d) read?
The Number of impurities was 2.

And the Number of impurities ([5]; 10 d, High temperature (oven, T=60° C.))?
The Number of impurities was 2.

And the Number of impurities ([5]; 10 d, High temperature and high humidity (40° C., 75% relative humidity))?
Its Number of impurities is 2.

What about the Number of impurities ([5]; 10 d, Illumination (25° C., 4500±500 lx)) of the same compound?
Its Number of impurities is 2.

And the Number of impurities ([5]; 10 d, Oxidation (25° C., closed container with urea hydrogen peroxide))?
The Number of impurities was 2.

And the “AUC (0-t)” value [2]?
Its value is 972.26 ± 291.88 µM·min.

And the “MRT (0-T)” value [2]?
The value was 357.13 ± 15.20 min.

And the Tmax [2]?
The Tmax was 80.00 ± 34.64 min.

What about the t1/2 [2] of the same compound?
The t1/2 was 305.38 ± 127.64 min.

What about the Cmax ([2]; listed as monobenzenesulfonate) of the same compound?
Its Cmax is 2300 ± 470 nM.

And the Purity ([6]; 10% aqueous acetone solution, 0 d)?
Its Purity is 98.2%.

What about the Number of impurities ([6]; 10% aqueous acetone solution, 0 d, impurities greater than 0.05%) of the same compound?
The Number of impurities was 1.

What about the Number of impurities [6, 7] of the same compound?
Its Number of impurities is 1.

What about the Purity [6, 7] of the same compound?
The Purity was 97.9%.

What about the Number of impurities ([6]; 10% aqueous acetone solution, 5 d, High temperature and high humidity) of the same compound?
The Number of impurities was 3.

What about the Number of impurities [6, 8] of the same compound?
The Number of impurities was 1.

What about the Purity [6, 8] of the same compound?
The Purity was 97.6%.

And the Number of impurities [6, 9]?
Its Number of impurities is 7.

What about the Purity [6, 9] of the same compound?
Its Purity is 60.8%.

What about the Number of impurities ([6]; B-R Buffer solution (pH=4.0), 0 d, impurities greater than 0.05%) of the same compound?
The Number of impurities was 2.

And the Number of impurities [6, 10]?
Its Number of impurities is 3.

And the Purity [6, 10]?
The Purity was 97.2%.

What about the Number of impurities [6, 11] of the same compound?
The Number of impurities was 3.

What about the Purity [6, 11] of the same compound?
Its Purity is 97.2%.

And the Number of impurities ([6]; B-R Buffer solution (pH=4.0), 5 d, Illumination (4500±500 lx, 25° C.))?
Its Number of impurities is 1.

And the Number of impurities [6, 12]?
Its Number of impurities is 12.

And the Purity [6, 12]?
Its Purity is 38.1%.

And the Number of impurities ([6]; SGF, 0 d, impurities greater than 0.05%)?
Its Number of impurities is 1.

What about the Number of impurities ([6]; SGF, 5 d, High temperature) of the same compound?
Its Number of impurities is 2.

And the Number of impurities [6, 13]?
The Number of impurities was 2.

What about the Purity [6, 13] of the same compound?
Its Purity is 94.4%.

And the Number of impurities ([6]; SGF, 5 d, Illumination (4500±500 lx, 25° C.))?
Its Number of impurities is 1.

And the Number of impurities [6, 14]?
The Number of impurities was 3.

And the Purity [6, 14]?
The Purity was 81.7%.

And the Purity ([6]; SIF, 0 d)?
The Purity was 80.2%.

And the Number of impurities ([6]; SIF, 0 d, impurities greater than 0.05%)?
The Number of impurities was 2.

What about the Number of impurities ([6]; SIF, 5 d, High temperature) of the same compound?
Its Number of impurities is 1.

And the Purity ([6]; SIF, 5 d, High temperature)?
The Purity was 58.7%.

And the Number of impurities [6, 15]?
Its Number of impurities is 8.

And the Purity [6, 15]?
The Purity was 42.0%.

And the Number of impurities [6, 16]?
The Number of impurities was 9.

What about the Purity [6, 16] of the same compound?
Its Purity is 10.0%.

And the Purity ([6]; SIF, 5 d, Oxidation (3% v/v hydrogen peroxide, 25° C.))?
The Purity was “Complete”.

What about the “hygroscopicity, in words” value [3] of the same compound?
The value was “not easy to absorb moisture”.

And the “water solubility at 20° C. determined by HPLC” value [4]?
The value was 60.4 µg/mL.

With `C=C(F)C(=O)Nc1cc2c(Nc3ccc(F)c(Cl)c3)ncnc2cc1OCCCN1CCOCC1.O.O.O=C(O)CC(O)(CC(=O)O)C(=O)O` [crystal form 7 of the dihydrate] as the compound, how does the “weight change (water absorbed) by DVS” value ([3]; relative humidity range of 10-80%) read?
The value was 0.38%.
